Data set [1] relates to CD4+ and CD8+ T cells. The data set can be described thus: Viability and live cell count of engineered T cell composition. The data set is classed as cell-based, human. Particulars: generated composition; produced with versus without compound. As for the experimental part: (§1) CD4+ and CD8+ T cells were isolated by immunoaffinity-based enrichment from leukapheresis samples from human donor subjects. […] The T cells cultured with our without Compound 63 were incubated overnight (approximately 24 hr) at 37° C., and were then transduced in serum-free culture media with our without Compound 63 ([…]) with a lentiviral vector encoding an anti-CD19 CAR. […] Following transduction, the cells were incubated in serum free media without recombinant cytokines (basal media) and with or without Compound 63 (1 mM) and allowed to incubate at about 37.0° C. in an incubator for up to 96 hours after initiation of the stimulation with the anti-CD3/anti-CD28 oligomeric stimulatory reagent (until day 5 of the process). […] The cryofrozen engineered CD4+ and CD8+ T cells were thawed, and T cells were assessed for intracellular S6 phosphorylation, a ribosomal protein and marker of mTOR inhibition, and co-stained for surface expression of CD4 or CD8 and for CCR7 and CD45RA as markers of memory subsets. pS6 expression in live CD8+ T cells by memory subsets was shown by the expression of CCR7 and CD45RA as shown in FIG. 6A. As shown, incubation with Compound 63 decreased the mean fluorescence intensity of stimulated memory T cell subsets, […], indicating an inhibition of mTOR, while having no significant effect on the percentage or total number of viable cells over time.

A further data set has as its system mTOR. The data set can be described thus: Intracellular S6 phosphorylation (marker of mTOR inhibition) in engineered T cells. The data set is classed as cell-based, human. As to conditions: live CD8+ T cells; 1 μM at stimulation (1 mM printed for later steps). The protocol:
as §1

Data set [2] concerns CD4+ and CD8+ T cells. Nature of the data set: Caspase, CD27/CCR7 phenotype and intracellular cytokines of thawed engineered T cells. The data set is classed as cell-based, human. The protocol: CD4+ and CD8+ T cells were isolated by immunoaffinity-based enrichment from leukapheresis samples from human donor subjects. At day 1, isolated CD4+ and CD8+ T cells were mixed 1:1 and stimulated with an anti-CD3/anti-CD28 oligomeric stimulatory reagent generated as described in Example 1 in serum-free media supplemented with recombinant IL-2 (100 IU/mL), recombinant IL-7 (600 IU/mL), and recombinant IL-15 (100 IU/mL) with or without 1 μM of 2-(3-hydroxyphenyl)-9-(2-isopropylphenyl)-8-oxo-8,9-dihydro-7H-purine-6-carboxamide (Compound 63). The T cells cultured with our without Compound 63 were incubated overnight (approximately 24 hr) at 37° C., and were then transduced in serum-free culture media with our without Compound 63 ([…]) with a lentiviral vector encoding an anti-CD19 CAR. The CAR contained an scFv antigen-binding domain specific for CD19 (derived from FMC63), a CD28 transmembrane region, a 4-1BB costimulatory signaling region, and a CD3-zeta derived intracellular signaling domain. Following transduction, the cells were incubated in serum free media without recombinant cytokines (basal media) and with or without Compound 63 (1 mM) and allowed to incubate at about 37.0° C. in an incubator for up to 96 hours after initiation of the stimulation with the anti-CD3/anti-CD28 oligomeric stimulatory reagent (until day 5 of the process). […] Following incubation CD4+ and CD8+ T cells from each donor were harvested, formulated, and cryofrozen.
Thawed cells generated by the process described were assessed for a marker of apoptosis (e.g., percentage of caspase positive CAR-T cells), phenotypic profile, and ability to produce intracellular cytokines following stimulation with PMA/Ionomycin and a Golgi Inhibitor. […] Thawed cells also were stained for surface expression of CD27 and CCR7 by flow cytometry.

In the next data set the test system is anti-CD19 CAR T cells. Nature of the data set: Long-term (12 days) stimulation with anti-idiotype antibody beads: expansion and survival. It is filed as cell-based, human. Particulars: anti-ID antibody beads. As for the experimental part:
CD4+ and CD8+ T cells were isolated by immunoaffinity-based enrichment from leukapheresis samples from human donor subjects. At day 1, isolated CD4+ and CD8+ T cells were mixed 1:1 and stimulated with an anti-CD3/anti-CD28 oligomeric stimulatory reagent generated as described in Example 1 in serum-free media supplemented with recombinant IL-2 (100 IU/mL), recombinant IL-7 (600 IU/mL), and recombinant IL-15 (100 IU/mL) with or without 1 μM of 2-(3-hydroxyphenyl)-9-(2-isopropylphenyl)-8-oxo-8,9-dihydro-7H-purine-6-carboxamide (Compound 63). The T cells cultured with our without Compound 63 were incubated overnight (approximately 24 hr) at 37° C., and were then transduced in serum-free culture media with our without Compound 63 ([…]) with a lentiviral vector encoding an anti-CD19 CAR. The CAR contained an scFv antigen-binding domain specific for CD19 (derived from FMC63), a CD28 transmembrane region, a 4-1BB costimulatory signaling region, and a CD3-zeta derived intracellular signaling domain. […]
To further assess the functional activity of the cells, the generated T cell compositions were stimulated long-term over 12 days with beads conjugated with an anti-idiotype (ID) antibody against the anti-CD19 CAR, and expansion and survival of the cells were monitored (FIG. 7F, left panel) and total expansion metric calculated by area under the curve (FIG. 7F, right panel).

Data set [3] concerns the target Strep-Tactin® (mutein streptavidin, SEQ ID NO: 4) (Streptomyces avidinii, UniProt P22629, E68V/S69T/V71R). As to conditions: general statement of the description, no experiment of the applicant; read-out: binding affinity KD for binding to Strep-Tactin®; cited from earlier work.

Strep-Tactin® (mutein streptavidin, SEQ ID NO: 4), sequence (P22629 other isoform, or with tags, fused parts or gaps E68V/S69T/V71R): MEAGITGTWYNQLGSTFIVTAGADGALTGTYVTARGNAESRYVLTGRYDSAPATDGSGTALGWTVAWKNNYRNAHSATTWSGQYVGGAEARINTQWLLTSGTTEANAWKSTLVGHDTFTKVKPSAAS

With `CC(C)c1ccccc1-n1c(=O)[nH]c2c(C(N)=O)nc(-c3cccc(O)c3)nc21` [Compound 63, 2-(3-hydroxyphenyl)-9-(2-isopropylphenyl)-8-oxo-8,9-dihydro-7H-purine-6-carboxamide], in the data set with CD4+ and CD8+ T cells [1], the percent viable cells result is listed as “did not impact” and the total live cells entry was “did not impact”. Besides, the “pS6 mean fluorescence intensity in memory T cell subsets (Temra, Tem, Tcm)” value with mTOR is given as “decreased”. In addition, in the data set on CD4+ and CD8+ T cells [2] (CD8+ and CD4+ T cells), the “phenotypic subset profile by CD27 and/or CCR7 expression” value was “did not substantially alter”. The “level of intracellular cytokines IL2, IFNg, or TNF” value in the data set with CD4+ and CD8+ T cells [2] (after PMA/Ionomycin and Golgi inhibitor, CD8+ and CD4+ T cells) was “substantially improved”. Besides, in the data set on CD4+ and CD8+ T cells [2] (thawed CAR-T cells, with versus without compound), the intracellular caspase expression entry was “less”. Besides, in the data set on anti-CD19 CAR T cells, the “function (expansion and survival) after long-term CAR-specific stimulation” value is “improved function”.
Broadly, the Kd is the equilibrium constant for the complex coming apart. In the case of WSHPQFEK [Strep-Tag® II], in data set [3], the Kd is about 1 µM.
